Measurements: patent US20040180953A1, “Crystalline form of phenylethanolamine, the preparation thereof and pharmaceutical compositions comprising the same” (priority 2001, published 2004)
Where a name gives a salt, the structure may show the parent alone.

How the values were obtained:
Type in all cases: physicochemical
[1] = Thermodynamic stability of the polymorphic forms maintained in solution or suspension; details: room temperature, or more generally less than or equal to 70° C.; whatever the solvent; hydrochloride
Protocol: Furthermore, in addition to the possibility of having a purer and more homogeneous product, the B form can be obtained with better production efficiency, both with regard to crystallization and with regard to filtration and drying, in particular when it is prepared in propan-2-ol.

[2] = Drying comparison of wet filtration cake in an agitated filter drier
Protocol: The drying, in an agitated filter drier, of a wet filtration cake of SR58611A of A form results, in less than two hours, in a change in crystalline form and in the production of a cake composed of 90% of C form. To return to the A form, it is then necessary to continue the drying at a temperature of greater than 60° C. with agitation for approximately 48 h. […] Furthermore, the shape of the crystals obtained (thick hexagonal plates) makes it possible to reduce the residual moisture content of the filtration cake to contents of less than 20% and in fact facilitates the drying of the product for the purpose of its use as medicamental active principle.

[3] = Kinetic conversion of SR58611A polymorphic mixture to B form in propan-2-ol suspension
Protocol: Polymorphic SR58611 hydrochloride (4.46 g) is suspended at ambient temperature in 0.3 litre of propan-2-ol. After maintaining for 70 h under isothermal conditions, the suspension is composed of SR58611A hydrochloride, B form, >96%. IR spectrum and X-ray diffraction are in agreement. Polymorphic SR58611 hydrochloride (95.2 g) is suspended at 70° C. in 0.3 litre of propan-2-ol. After maintaining for 12 h 30 under isothermal conditions, the suspension is composed of SR58611 hydrochloride, B form, >98%. IR spectrum and X-ray diffraction are in agreement.

CCOC(=O)COc1ccc2c(c1)C[C@@H](NC[C@H](O)c1cccc(Cl)c1)CC2.Cl [A form, ethyl [(7S)-7-[(2R)-2-(3-chlorophenyl)-2-hydroxyethylamino]-5,6,7,8-tetrahydronaphth-2-yloxy]-acetate hydrochloride]
thermodynamic stability relative to the other polymorphs [1]: end up by being converted to the B form | C form content of the cake after change in crystalline form on drying ([2]; agitated filter drier, wet filtration cake, in less than two hours): 90% | further drying time needed to return to the A form ([2]; drying at greater than 60° C. with agitation): approximately 48 h

CCOC(=O)COc1ccc2c(c1)C[C@@H](NC[C@H](O)c1cccc(Cl)c1)CC2.Cl [B form, ethyl [(7S)-7-[(2R)-2-(3-chlorophenyl)-2-hydroxyethylamino]-5,6,7,8-tetrahydronaphth-2-yloxy]-acetate hydrochloride]
thermodynamic stability relative to the other polymorphs [1]: the most thermodynamically stable form | change of crystalline form on drying ([2]; drying of filtration cake): not changing crystalline form on drying | residual moisture content of the filtration cake ([2]; thick hexagonal plate crystals): less than 20%

CCOC(=O)COc1ccc2c(c1)C[C@@H](NC[C@H](O)c1cccc(Cl)c1)CC2.Cl [C form, ethyl [(7S)-7-[(2R)-2-(3-chlorophenyl)-2-hydroxyethylamino]-5,6,7,8-tetrahydronaphth-2-yloxy]-acetate hydrochloride]
thermodynamic stability relative to the other polymorphs [1]: end up by being converted to the B form

CCOC(=O)COc1ccc2c(c1)C[C@@H](NC[C@H](O)c1cccc(Cl)c1)CC2 [Polymorphic SR58611 hydrochloride, N-[(2S)-7-ethoxycarbonylmethoxy-1,2,3,4-tetrahydronaphth-2-yl]-(2R)-(3-chlorophenyl)-2-hydroxyethanamine hydrochloride]
B form content of the suspension after conversion ([3]; suspended at 70° C. in propan-2-ol, 12 h 30 isothermal): > 98% | B form content of the suspension after conversion ([3]; suspended at ambient temperature in propan-2-ol, 70 h isothermal): > 96%
